Test results reported in paper PMC12598616, “Design and optimization of caspase-1-responsive fluorescent probes for pyroptosis imaging and anti-pyroptosis drug screening” (Chemical Science, 2025).

What was measured:
[1] = test system: Cas-1 in primary chondrocytes; assay: Intracellular imaging in primary chondrocytes; type: cell-based; details: H2O2 2 mM 30, 60, 90 min; FPy1 5 μM 1 h
Protocol: (§1) The decline in chondrocyte function plays a crucial role in the pathogenesis of OA. Inflammasome-mediated chondrocyte pyroptosis has been closely associated with matrix degradation and cartilage degeneration in OA.[38] To model OA in vitro, primary chondrocytes were stimulated with H2O2 (2 mM) for different durations, followed by staining with FPy1 (5 μM) and fluorescence imaging to monitor the progression of pyroptosis under oxidative stress. […] To better mimic the in vivo pathological features of OA, primary chondrocytes were also cultured as three-dimensional spheroids and stimulated with H2O2. […] Furthermore, we evaluated the capability of FPy1 to monitor pyroptosis progression at different stages of OA in a mouse model. […] The pathological manifestations in the corresponding tissues became more pronounced with longer modeling periods, consistent with the fluorescence imaging results obtained using FPy1. […]
(§2) Chondrocytes were isolated from articular cartilage and resuspended in 1mL DMEM/F12 medium containing 10 μM ITS-A. A total of […] were counted and transferred into centrifuge tubes. […]
(§3) The chondrocytes or 3D cell spheroids were seeded in dishes and cultured overnight. […] Fluorescence imaging was then performed with an excitation of 514 nm, and signals were […]

[2] = test system: Cas-1 in chondrocyte spheroids; assay: Imaging in chondrocyte 3D cell spheroids; type: cell-based; details: H2O2 2 mM 30, 60, 90 min; FPy1 5 μM; compared with 2D cultures
Protocol: as §1, §2, §3

Substance: –FLTDG– [FPy1, RhoB donor, hNR quencher]
- intracellular fluorescence intensity in primary chondrocytes [1]: increased with prolonged H2O2 stimulation
- fluorescence enhancement in chondrocyte spheroids [2]: more pronounced fluorescence enhancement in chondrocyte spheroids than in two-dimensional cultures
